Source: US7078400B2, “20-HETE synthase inhibitor” (Taisho Pharmaceutical Co., Ltd., priority 1999, dated 2006)

System: 20-HETE synthase originated from rat kidney microsome
Experiment: Inhibitory effect of 20-HETE synthase originated from rat kidney microsome
Format: biochemical
Conditions: 1 μM of subject compound; 20-HETE production without compound set to 100%; rat kidney microsome
Protocol: Experimental Example [Inhibitory effect of 20-HETE synthase originated from rat kidney microsome]
Regarding the compounds listed in Table 1, their inhibitory activity to production of 20-HETE was examined.
The subject compound for this examination was added to a buffer comprising 50 mM of 3-morpholinopropane sulfonic acid (pH7.4), 5 mM of magnesium chloride and 1 mM of ethylenediaminetetraacetic acid (EDTA) disodium salt.
After that, the rat kidney microsome (microsome fraction prepared from the kidney of a spontaneous hypertension rat (male, 6 weeks of age)) as an enzyme, [5,6,8,9,11,12,14,15] tritium-arachidonic acid (supplied by Amasham) as a substrate, and NADPH (supplied by Sigma) as a coenzyme were added and reacted for 1.5 hours at 37° C.
After the reaction, formic acid was added to stop the reaction, and then acetonitrile (final concentration of 50%) was added and left for 1.5 hours at room temperature.
The activity of 20-HETE synthase was measured by using a high performance liquid chromatograph having a detector for radioactive substances (supplied by Gilson), and equipped with a C18 reversed phase column (Biocyl C18, supplied by Bio-rad).

Going from `COc1ccc(N/C=N/O)c(OC)c1` [Comp. 198] to `COC(=O)c1ccc(N/C=N/O)c(C)c1` [Comp. 199], the “Inhibition rate (1 μM)” value rises from 81.8 to 85.6.

First: COC(=O)c1cc(I)ccc1N/C=N/O [Comp. 201]
Second: Cc1ccc(CO)cc1N/C=N/O [Comp. 214]
The “Inhibition rate (1 μM)” value of the first is higher: 70.1 for the first, 31.9 for the second.

Compared with `O/N=C/Nc1c(F)cc(Br)cc1Br` [Comp. 210], `O/N=C/Nc1c(F)c(F)c(F)c(F)c1F` [Comp. 215] is lower in “Inhibition rate (1 μM)” value: 78 for the first, 36.1 for the second.

Going from `O=[N+]([O-])c1ccc(Sc2ccc(N/C=N/O)cc2)cc1` [Comp. 223] to `COc1ccc(/C=C/c2ccc(N/C=N/O)cc2)cc1` [Comp. 228], the “Inhibition rate (1 μM)” value rises from 52.2 to 72.0.

First: O/N=C/Nc1ccc(SC(F)(F)F)cc1 [Comp. 224]
Second: CC(=O)N(C)c1ccc(N/C=N/O)cc1 [Comp. 301]
The “Inhibition rate (1 μM)” value of the first is lower: 47.1 for the first, 62.1 for the second.

Compared with `O/N=C/Nc1cccc2ccccc12` [Comp. 242], `O=C(Nc1ccccc1)c1ccccc1N/C=N/O` [Comp. 278] is higher in “Inhibition rate (1 μM)” value: 50.6 for the first, 65.3 for the second.

First: Cc1cc(N/C=N/O)ccc1N1C(=O)c2ccc(Cl)cc2C1=O [Comp. 244]
Second: O/N=C/Nc1ccc2c(c1)Cc1cc(Br)ccc1-2 [Comp. 274]
The “Inhibition rate (1 μM)” value of the first is lower: 32.7 for the first, 94.5 for the second.

Compared with `CCC1(c2ccc(N/C=N/O)cc2)CCC(=O)NC1=O` (stereo not drawn) [Comp. 245], `CNS(=O)(=O)Cc1ccc(N/C=N/O)cc1` [Comp. 259] is lower in “Inhibition rate (1 μM)” value: 55.4 for the first, 52.8 for the second.

Compared with `COc1cc2c(cc1N/C=N/O)oc1ccccc12` [Comp. 277], `Cc1cc(C(C#N)c2ccc(Cl)cc2)c(Cl)cc1N/C=N/O` (stereo not drawn) [Comp. 279] is lower in “Inhibition rate (1 μM)” value: 76.4 for the first, 42.8 for the second.

Going from `CCCCN(CCCC)CCCOC(=O)c1ccc(N/C=N/O)cc1` [Comp. 281] to `Cc1ccc2cc(N/C=N/O)ccc2n1` [Comp. 295], the “Inhibition rate (1 μM)” value rises from 50.9 to 73.8.

Going from `CN(C)c1ccc(/C=C/c2ccc(N/C=N/O)cc2)cc1` [Comp. 282] to `N#CC(c1ccccc1)c1ccc(N/C=N/O)cc1` (stereo not drawn) [Comp. 283], the “Inhibition rate (1 μM)” value falls from 122.9 to 62.6.

With `O/N=C/Nc1ccc2ncccc2c1` [Comp. 297] the “Inhibition rate (1 μM)” value was 71.1.

Same assay, conditions: 1 μM of the subject compound added; 20-HETE production without compound set to 100%; rat kidney microsome

Compared with `Cc1ccc(N/C=N/O)c(C)c1` [Comp. 22], `Cc1ccc(N/C=N/O)c(F)c1` [Comp. 165] is higher in “Inhibition rate (1 μM)” value: 95.7 for the first, 105.7 for the second.

First: O/N=C/Nc1ccc(Br)cc1Cl [Comp. 35]
Second: O/N=C/Nc1ccc(F)cc1Cl [Comp. 69]
The “Inhibition rate (1 μM)” value of the first is higher: 95.4 for the first, 58.7 for the second.

Going from `Cc1ccc(C(C)C)cc1N/C=N/O` [Comp. 57] to `COc1ccc(C)c(N/C=N/O)c1` [Comp. 104], the “Inhibition rate (1 μM)” value falls from 59.1 to 31.9.

First: COc1ccccc1N/C=N/O [Comp. 59]
Second: O/N=C/Nc1ccccc1OC(F)F [Comp. 153]
The “Inhibition rate (1 μM)” value of the first is higher: 49.0 for the first, 39.4 for the second.

Compared with `Cc1cccc(N/C=N/O)c1` [Comp. 62], `O/N=C/Nc1cccc(I)c1` [Comp. 91] is lower in “Inhibition rate (1 μM)” value: 69.5 for the first, 36.6 for the second.

Going from `Cc1cccc(N/C=N/O)c1C` [Comp. 63] to `Cc1c(Cl)cccc1N/C=N/O` [Comp. 67], the “Inhibition rate (1 μM)” value falls from 49.3 to 48.4.

First: COc1cccc(N/C=N/O)c1 [Comp. 65]
Second: CCOc1cccc(N/C=N/O)c1 [Comp. 66]
The “Inhibition rate (1 μM)” value of the first is higher: 59.3 for the first, 41.2 for the second.

Going from `CCCCCCCCc1ccc(N/C=N/O)cc1` [Comp. 70] to `CCCCCCCCCCc1ccc(N/C=N/O)cc1` [Comp. 157], the “Inhibition rate (1 μM)” value rises from 32.9 to 121.4.

First: CCCc1ccccc1N/C=N/O [Comp. 71]
Second: O/N=C/Nc1ccccc1Br [Comp. 75]
The “Inhibition rate (1 μM)” value of the first is lower: 42.5 for the first, 46.9 for the second.

Going from `O/N=C/Nc1ccc(I)cc1Cl` [Comp. 73] to `O/N=C/Nc1ccc(Cl)cc1Br` [Comp. 117], the “Inhibition rate (1 μM)” value falls from 99.9 to 71.6.

First: Cc1cc(Br)cc(C)c1N/C=N/O [Comp. 74]
Second: Cc1cc(C)c(N/C=N/O)c([N+](=O)[O-])c1 [Comp. 95]
The “Inhibition rate (1 μM)” value of the first is lower: 43.7 for the first, 44.5 for the second.

Going from `COc1cc(N/C=N/O)cc(OC)c1` [Comp. 76] to `COc1ccc(N/C=N/O)cc1OC` [Comp. 78], the “Inhibition rate (1 μM)” value rises from 35.1 to 36.3.

Compared with `O/N=C/Nc1ccc(Br)cc1C(F)(F)F` [Comp. 77], `CC(=O)Nc1ccc(N/C=N/O)cc1C(F)(F)F` [Comp. 150] is lower in “Inhibition rate (1 μM)” value: 49.0 for the first, 34.1 for the second.

Compared with `O/N=C/Nc1ccccc1F` [Comp. 79], `O/N=C/Nc1ccccc1` [Comp. 135] is higher in “Inhibition rate (1 μM)” value: 35.3 for the first, 49.3 for the second.

First: O/N=C/Nc1cc(C(F)(F)F)ccc1Cl [Comp. 80]
Second: COc1ccc(C(F)(F)F)cc1N/C=N/O [Comp. 90]
The “Inhibition rate (1 μM)” value of the first is higher: 37.2 for the first, 36.5 for the second.

Going from `O/N=C/Nc1cccc(Cl)c1Cl` [Comp. 81] to `COc1cccc(N/C=N/O)c1OC` [Comp. 99], the “Inhibition rate (1 μM)” value falls from 51.3 to 40.8.

Compared with `Cc1ccc(N/C=N/O)cc1Cl` [Comp. 86], `COc1ccc(N/C=N/O)cc1Cl` [Comp. 101] is lower in “Inhibition rate (1 μM)” value: 58.7 for the first, 52.4 for the second.

First: CCOc1ccc(N/C=N/O)c([N+](=O)[O-])c1 [Comp. 94]
Second: Cc1ccc(N/C=N/O)c([N+](=O)[O-])c1 [Comp. 143]
The “Inhibition rate (1 μM)” value of the first is higher: 41.2 for the first, 37.3 for the second.

First: COc1ccc(N/C=N/O)cc1F [Comp. 98]
Second: CSc1cccc(N/C=N/O)c1 [Comp. 162]
The “Inhibition rate (1 μM)” value of the first is lower: 43.9 for the first, 62.6 for the second.

Going from `O/N=C/Nc1c(Br)cc(C2CCCCC2)cc1Br` [Comp. 102] to `COc1cc(OC)c(N/C=N/O)cc1Cl` [Comp. 108], the “Inhibition rate (1 μM)” value falls from 44.4 to 36.4.

First: O/N=C/Nc1ccc(C(O)(C(F)(F)F)C(F)(F)F)cc1 [Comp. 105]
Second: O/N=C/Nc1ccc(OC(F)F)cc1 [Comp. 151]
The “Inhibition rate (1 μM)” value of the first is lower: 46.7 for the first, 108.2 for the second.

Compared with `N#Cc1ccc(N/C=N/O)cc1` [Comp. 112], `COC(=O)c1ccc(N/C=N/O)cc1` [Comp. 123, N-(4-methoxycarbonylphenyl)-N′-hydroxyformamidine] is higher in “Inhibition rate (1 μM)” value: 37.4 for the first, 92.7 for the second.

Compared with `O=C(OC/C=C/c1ccccc1)c1ccccc1N/C=N/O` [Comp. 138], `CCOC(=O)c1ccc(N/C=N/O)cc1` [Comp. 183] is higher in “Inhibition rate (1 μM)” value: 44.0 for the first, 92.0 for the second.

Going from `CCc1cccc(C)c1N/C=N/O` [Comp. 139] to `CCc1cccc(C(C)C)c1N/C=N/O` [Comp. 163], the “Inhibition rate (1 μM)” value falls from 69.7 to 40.0.

Compared with `CSCc1cccc(C(F)(F)F)c1N/C=N/O` [Comp. 149], `Cc1ccc(N/C=N/O)c(CO)c1` [Comp. 171] is higher in “Inhibition rate (1 μM)” value: 36.5 for the first, 54.1 for the second.

Compared with `COc1ccc(Oc2ccc(C(F)(F)F)cc2N/C=N/O)cc1` [Comp. 156], `COC(=O)c1ccc(OC)c(N/C=N/O)c1` [Comp. 190] is higher in “Inhibition rate (1 μM)” value: 39.4 for the first, 44.9 for the second.

Going from `CC(C)(C)c1cccc(N/C=N/O)c1` [Comp. 175] to `CCCc1cccc(N/C=N/O)c1` [Comp. 179], the “Inhibition rate (1 μM)” value falls from 69.9 to 63.5.

Going from `CC(C)OC(=O)c1ccc(N/C=N/O)cc1` [Comp. 188] to `CC(C)COC(=O)c1ccc(N/C=N/O)cc1` [Comp. 189], the “Inhibition rate (1 μM)” value rises from 59.1 to 116.8.

In the case of `COc1cc(C#N)c(N/C=N/O)cc1OC` [Comp. 196], the “Inhibition rate (1 μM)” value is reported as 46.9.

Same assay, conditions: concentration at which production of 20-HETE was inhibited to 50%; rat kidney microsome

`O/N=C/Nc1ccc(Br)cc1Cl` [Comp. 35] gave an IC50 of 86.5 nM.
